# From patent US6551999B1, “Angiogenesis inhibitor” (Senju Pharmaceutical Co., Ltd., priority 1995, dated 2003)
# Peptide text beside a SMILES is read from it. * marks the point of attachment. Tos = Cc1ccc(S(=O)(=O)*)cc1
# Molecular target: T1, μ-calpain (Homo sapiens, UniProt P07384)
# T1 construct: purchased Nakalai Tesque
# T1 sequence (P07384 1-714): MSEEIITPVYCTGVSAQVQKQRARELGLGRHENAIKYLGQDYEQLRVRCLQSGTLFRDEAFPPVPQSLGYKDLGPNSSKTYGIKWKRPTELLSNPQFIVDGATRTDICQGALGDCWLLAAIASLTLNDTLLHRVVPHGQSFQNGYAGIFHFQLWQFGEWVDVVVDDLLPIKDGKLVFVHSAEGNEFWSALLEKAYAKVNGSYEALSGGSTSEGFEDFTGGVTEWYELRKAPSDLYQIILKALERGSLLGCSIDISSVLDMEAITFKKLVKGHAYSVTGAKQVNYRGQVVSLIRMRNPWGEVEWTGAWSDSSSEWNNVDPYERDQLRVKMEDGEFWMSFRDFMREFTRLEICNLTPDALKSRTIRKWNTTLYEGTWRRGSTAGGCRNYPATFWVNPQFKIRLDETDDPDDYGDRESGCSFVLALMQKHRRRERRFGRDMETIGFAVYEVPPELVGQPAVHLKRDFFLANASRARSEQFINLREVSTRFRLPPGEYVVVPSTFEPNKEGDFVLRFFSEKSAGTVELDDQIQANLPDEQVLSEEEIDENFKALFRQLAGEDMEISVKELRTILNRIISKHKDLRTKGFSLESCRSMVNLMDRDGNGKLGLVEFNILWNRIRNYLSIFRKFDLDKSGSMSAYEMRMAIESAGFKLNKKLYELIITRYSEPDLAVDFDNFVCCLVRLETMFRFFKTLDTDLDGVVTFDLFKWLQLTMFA
# T1 sequence (P04632 1-268 partner): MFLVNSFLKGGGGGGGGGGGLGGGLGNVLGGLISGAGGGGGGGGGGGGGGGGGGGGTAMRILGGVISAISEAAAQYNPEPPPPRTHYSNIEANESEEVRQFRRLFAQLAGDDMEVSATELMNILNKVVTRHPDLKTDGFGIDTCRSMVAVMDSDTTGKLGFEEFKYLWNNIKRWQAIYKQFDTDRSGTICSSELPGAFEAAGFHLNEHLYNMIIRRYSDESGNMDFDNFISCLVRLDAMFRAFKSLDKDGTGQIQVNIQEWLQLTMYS
# Assay: μ-Calpain-inhibitory activity (casein substrate)
# Format: biochemical
# Conditions: 60 minutes at 30° C., pH 7.4, 4 mM calcium chloride
# Method: Thus, to a solution containing 0.5 mg/ml casein, 50 mM Tris-HCl (pH 7.4), 20 mM dithiothreitol, and 4 mM calcium chloride was added 2.5 μl of a dimethyl sulfoxide solution containing a varying concentration of the test drug as well as 0.03 unit of μcalpain to initiate the reaction. The final liquid volume was 250 μl. After 60 minutes of reaction at 30° C., 100 μl of the reaction mixture was transferred to another vessel, to which 50 μl of purified water and 100 μl of 50% Coumassie brilliant blue solution were added. […] As a control, 2.5 μl of dimethyl sulfoxide not containing the test drug was added and the mixture was treated in the same manner as above. […] Similarly, the value found by adding 0.2 mM EDTA in lieu of 4 mM aqueous calcium chloride solution was used as the blank value. […] [formula]
row,IC50,Compound
1,0.01 µM,"CC(C)C[C@@H](C=O)NC(=O)[C@@H](NS(=O)(=O)c1ccc2ccccc2c1)C(C)C [Compound 34, N-(2-naphthalenesulfonyl)-L-valyl-L-leucinal]"
2,0.031 µM,"CC(C)C[C@@H](C=O)NC(=O)[C@@H](NS(=O)(=O)c1ccc(Cl)cc1)C(C)C [Compound 36, N-(4-chlorophenylsulfonyl)-L-valyl-L-leucinal]"
3,0.028 µM,"Cc1ccc(S(=O)(=O)N[C@H](C(=O)N[C@H](C=O)CC(C)C)C(C)C)cc1 [Compound 37, N-(4-methylphenylsulfonyl)-L-valyl-L-leucinal] (Tos-Val-Leu-aldehyde)"
4,6.1 µM,"CC(C)C[C@@H](C=O)NC(=O)[C@@H](NS(=O)(=O)c1ccc2ccccc2c1)C(C)(C)C [Compound 38, N-(2-naphthalenesulfonyl)-L-tert-leucyl-L-leucinal]"
5,3.2 µM,"CC(C)(C)[C@H](NS(=O)(=O)c1ccc2ccccc2c1)C(=O)N[C@H](C=O)Cc1ccccc1 [Compound 42, N-(2-naphthalenesulfonyl)-L-tert-leucyl-L-phenylalaninal]"
6,0.027 µM,"CC(C)[C@H](NS(=O)(=O)c1ccc(F)cc1)C(=O)N[C@H](C=O)Cc1ccccc1 [Compound 43, N-(4-fluorophenylsulfonyl)-L-valyl-L-phenylalaninal]"
7,0.014 µM,"CC(C)[C@H](NS(=O)(=O)c1ccc2ccccc2c1)C(=O)N[C@H](C=O)Cc1ccccc1 [Compound 44, N-(2-naphthalenesulfonyl)-L-valyl-L-phenylalaninal]"
8,0.014 µM,"CC(C)[C@H](NS(=O)(=O)c1ccc(Cl)cc1)C(=O)N[C@H](C=O)Cc1ccccc1 [Compound 45, N-(4-chlorophenylsulfonyl)-L-valyl-L-phenylalaninal]"
9,0.018 µM,"Cc1ccc(S(=O)(=O)N[C@H](C(=O)N[C@H](C=O)Cc2ccccc2)C(C)C)cc1 [Compound 46, N-(4-methylphenylsulfonyl)-L-valyl-L-phenylalaninal] (Tos-Val-Phe-aldehyde)"
10,0.013 µM,"CC(C)[C@H](NS(=O)(=O)c1ccc(Cl)cc1)C(=O)N[C@H](C=O)Cc1c[nH]c2ccccc12 [Compound 48, N-(4-chlorophenylsulfonyl)-L-valyl-L-tryptophanal]"
11,0.023 µM,"CC(C)[C@H](NS(=O)(=O)c1ccc(F)cc1)C(=O)N[C@H](C=O)Cc1c[nH]c2ccccc12 [Compound 49, N-(4-fluorophenylsulfonyl)-L-valyl-L-tryptophanal]"

# More lines, now with the values behind:
row,Compound,IC50
1,"CC(C)C[C@H](NC(=O)[C@H]1O[C@@H]1C(=O)O)C(=O)N1CCN(c2ccccc2)CC1 [Compound 14, (2s,3s)-3-[[[[(1s)-1-[(4-phenyl-1-piperazinyl)carbonyl]-3-methyl]butyl]amino]carbonyl]oxiranecarboxylic acid]",0.78 µM
2,"CC(C)C[C@H](NC(=O)[C@H]1O[C@@H]1C(=O)O)C(=O)N1CCN(S(=O)(=O)N(C)C)CC1 [Compound 15, (2s,3s)-3-[[[[(1s)-1-[(4-dimethylsulfamoyl-1-piperazinyl)carbonyl]-3-methyl]butyl]amino]carbonyl]oxiranecarboxylic acid]",1.1 µM
3,"CC(C)C[C@H](NC(=O)[C@H]1O[C@@H]1C(=O)O)C(=O)N1CCN(c2cccc(Cl)c2)CC1 [Compound 18, (2s,3s)-3-[[[[(1s)-1-[[4-(3-chlorophenyl)-1-piperazinyl]carbonyl]-3-methyl]butyl]amino]carbonyl]oxiranecarboxylic acid]",0.63 µM
4,"CC(C)C[C@H](NC(=O)[C@H]1O[C@@H]1C(=O)O)C(=O)N1CCN(c2ccc(Cl)cc2)CC1 [Compound 19, (2s,3s)-3-[[[[(1s)-1-[[4-(4-chlorophenyl)-1-piperazinyl]carbonyl]-3-methyl]butyl]amino]carbonyl]oxiranecarboxylic acid]",0.49 µM
5,"CC(C)[C@H](NC(=O)[C@H]1O[C@@H]1C(=O)O)C(=O)N1CCN(c2ccccc2Cl)CC1 [Compound 21, (2s,3s)-3-[[[[(1s)-1-[[4-(2-chlorophenyl)-1-piperazinyl]carbonyl]-2-methyl]propyl]amino]carbonyl]oxiranecarboxylic acid]",0.95 µM
6,"C[C@H](NC(=O)[C@H]1O[C@@H]1C(=O)O)C(=O)N1CCN(c2ccccc2Cl)CC1 [Compound 23, (2s,3s)-3-[[[(1s)-1-[[4-(2-chlorophenyl)-1-piperazinyl]carbonyl]ethyl]amino]carbonyl]oxiranecarboxylic acid]",5.1 µM
7,"O=C(O)[C@H]1O[C@@H]1C(=O)NCCC(=O)N1CCN(c2ccccc2Cl)CC1 [Compound 25, (2s,3s)-3-[[[2-[[4-(2-chlorophenyl)-1-piperazinyl]carbonyl]ethyl]amino]carbonyl]oxiranecarboxylic acid]",41 µM
8,"O=C(O)[C@H]1O[C@@H]1C(=O)N1CCC[C@H]1C(=O)N1CCN(c2ccccc2Cl)CC1 [Compound 27, (2s,3s)-3-[[(2s)-2-[[4-(2-chloro-phenyl)-1-piperazinyl]carbonyl]-1-pyrrolidinyl]carbonyl]oxiranecarboxylic acid]",2400 µM
9,"CSCC[C@H](NC(=O)[C@H]1O[C@@H]1C(=O)O)C(=O)N1CCN(c2ccccc2Cl)CC1 [Compound 29, (2s,3s)-3-[[[[(1s)-1-[[4-(2-chlorophenyl)-1-piperazinyl]carbonyl]-3-methylthio]propyl]amino]carbonyl]oxiranecarboxylic acid]",0.6 µM
10,"NC(=O)CC[C@H](NC(=O)[C@H]1O[C@@H]1C(=O)O)C(=O)N1CCN(c2ccccc2Cl)CC1 [Compound 30, (2s,3s)-3-[[[[(1s)-1-[[4-(2-chlorophenyl)-1-piperazinyl]carbonyl]-3-carbamoyl]propyl]amino]carbonyl]oxiranecarboxylic acid]",6 µM
11,"O=C(O)[C@H]1O[C@@H]1C(=O)NC1(C(=O)N2CCN(c3ccc(F)cc3)CC2)CCCC1 [Compound 31, (2s,3s)-3-[[[(1s)-1-[[4-(4-fluorophenyl)-1-piperazinyl]carbonyl]-1-cyclopentyl]amino]carbonyl]oxiranecarboxylic acid]",150 µM
12,"Cc1ccc(S(=O)(=O)N2CCN(C(=O)[C@H](CC(C)C)NC(=O)[C@H]3O[C@@H]3C(=O)NO)CC2)cc1 [Compound 33, (2s,3s)-3-[[[[(1s)-1-[[4-(4-methylphenylsulfonyl)-1-piperazinyl]carbonyl]-3-methyl]butyl]amino]carbonyl]oxiranecarbohydroxamic acid]",1.9 µM
13,"CCCC[C@H](NS(=O)(=O)c1ccc(F)cc1)C(=O)N[C@H](C=O)CC(C)C [Compound 40, N-(4-fluorophenylsulfonyl)-L-norleucyl-L-leucinal]",0.26 µM
14,"CCC[C@H](NS(=O)(=O)c1ccc(F)cc1)C(=O)N[C@H](C=O)CC(C)C [Compound 41, N-(4-fluorophenylsulfonyl)-L-norvalyl-L-leucinal]",0.13 µM
15,O=C[C@H](Cc1ccccc1)NC(=O)C1(NS(=O)(=O)c2ccc3ccccc3c2)CCCCC1 [Compound 47],0.2 µM
16,"O=C[C@H](Cc1c[nH]c2ccccc12)NC(=O)C1(NS(=O)(=O)c2ccc3ccccc3c2)CCCCC1 [Compound 50, 1-(2-naphthalenesulfonylamino)cyclohexanecarbonyl-L-tryptophanal]",0.36 µM

# Same assay, conditions: read-out: Calpain 50% inhibitory concentration (IC50); 60 minutes at 30° C., pH 7.4, 4 mM calcium chloride
row,Compound,IC50
1,"CCOC(=O)[C@H]1O[C@@H]1C(=O)N[C@@H](CC(C)C)C(=O)N1CCN(c2ccc(F)cc2)CC1 [Compound 3, ethyl (2s,3s)-3-[[[[(1s)-1-[[4-(4-fluorophenyl)-1-piperazinyl]carbonyl]-3-methyl]butyl]amino]carbonyl]oxiranecarboxylate]",47 µM
2,"COc1ccc(N2CCN(C(=O)[C@H](CC(C)C)NC(=O)[C@H]3O[C@@H]3C(=O)O)CC2)cc1 [Compound 20, (2s,3s)-3-[[[[(1s)-1-[[4-(4-methoxyphenyl)-1-piperazinyl]carbonyl]-3-methyl]butyl]amino]carbonyl]oxiranecarboxylic acid]",1.2 µM
3,"CC(=O)NCSC[C@@H](NC(=O)[C@H]1O[C@@H]1C(=O)O)C(=O)N1CCN(c2ccccc2Cl)CC1 [Compound 28, (2s,3s)-3-[[[[(1s)1-[[4-(2-chlorophenyl)-1-piperazinyl]carbonyl]-2-acetylaminomethylthio]-ethyl]amino]carbonyl]oxiranecarboxylic acid]",3.9 µM
